Consider one compound from patent US20060210528A1, “Therapy for tropical diseases” (Aspire Biotech, Inc., priority 2001, published 2006).

In the series the test system is plantar warts. The series can be described thus: Treatment of plantar warts on a patient's feet with an in situ polymeric film versus freezing. The class given is in vivo, human. The method, then: The following examples illustrate how the methods of this invention could be used.
A patient presents to a dermatologist with two similar plantar warts on the soles of their left and right feet. The wart on the right foot is treated by freezing with liquid nitrogen.

With `N#N` [liquid nitrogen], the “pain on treated foot” value (plantar wart on sole of foot) is on record as “makes walking on the foot painful for several days”. Further, where the note is “plantar wart on sole of foot, film re-applied every 3-4 days”, the “time until wart resolves” value came to 3 weeks. Besides, the “return of wart after resolution” value (plantar wart, film treatment continued two weeks after resolution) is given as “has returned after two months”.
